{
  "source": "patent US20230101687A1",
  "about": "“SYNTHETIC TISSUE BARRIERS AND USES THEREOF” (Massachusetts Institute of Technology, priority 2019, published 2023)",
  "key": {"[1]": {"molecular_target": "CAT (Homo sapiens, UniProt P04040)", "sequence (P04040 2-527 limits assumed)": "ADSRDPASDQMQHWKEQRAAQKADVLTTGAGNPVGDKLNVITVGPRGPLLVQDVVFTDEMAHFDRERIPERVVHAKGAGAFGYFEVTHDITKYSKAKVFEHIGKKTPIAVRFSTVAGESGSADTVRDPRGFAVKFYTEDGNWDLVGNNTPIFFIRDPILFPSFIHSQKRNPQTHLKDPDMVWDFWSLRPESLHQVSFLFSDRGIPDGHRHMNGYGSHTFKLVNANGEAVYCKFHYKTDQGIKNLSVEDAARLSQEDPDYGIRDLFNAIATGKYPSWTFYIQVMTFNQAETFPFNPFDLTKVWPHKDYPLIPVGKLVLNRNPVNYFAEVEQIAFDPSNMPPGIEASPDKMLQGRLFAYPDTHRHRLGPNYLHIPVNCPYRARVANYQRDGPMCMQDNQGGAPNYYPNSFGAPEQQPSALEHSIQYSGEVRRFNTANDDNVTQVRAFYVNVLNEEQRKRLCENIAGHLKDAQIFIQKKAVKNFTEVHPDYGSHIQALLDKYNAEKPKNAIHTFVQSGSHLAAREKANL", "method": "To confirm the reliability of the porcine-based TPA-positive tissue map described above for potential human trials, fresh resected tissue specimens from humans were tested for compatibility with TPA technology. Similar to the porcine TPA-map study, human tissue specimens were incubated with the TPA solution containing M1, and subsequently CAT-accelerated chromogenic M1 assembly was characterized."}, "[2]": {"molecular_target": "endogenous catalase (CAT) (Sus scrofa, UniProt O62839)", "sequence (O62839 2-527 limits assumed)": "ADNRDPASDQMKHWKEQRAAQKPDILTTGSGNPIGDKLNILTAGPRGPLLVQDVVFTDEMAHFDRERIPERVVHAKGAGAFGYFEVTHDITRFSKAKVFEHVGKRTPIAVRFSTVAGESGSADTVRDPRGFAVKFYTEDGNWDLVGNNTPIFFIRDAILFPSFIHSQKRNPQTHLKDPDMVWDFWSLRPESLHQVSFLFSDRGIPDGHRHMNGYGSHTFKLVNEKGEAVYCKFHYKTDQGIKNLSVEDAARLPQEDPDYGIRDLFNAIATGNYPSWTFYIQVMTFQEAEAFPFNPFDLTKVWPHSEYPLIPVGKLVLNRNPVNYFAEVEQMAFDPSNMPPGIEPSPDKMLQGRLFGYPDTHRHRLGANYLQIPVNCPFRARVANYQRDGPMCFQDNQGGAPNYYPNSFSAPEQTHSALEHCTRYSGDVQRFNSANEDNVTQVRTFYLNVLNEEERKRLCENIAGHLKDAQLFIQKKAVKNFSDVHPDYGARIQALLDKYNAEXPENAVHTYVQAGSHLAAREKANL", "settings": "of 35 porcine tissue sites"}},
  "data": [
    {"smiles": "NCCc1ccc(O)c(O)c1", "note": "[Monomer M1, dopamine]", "values": [
      {"measurement": "time to 95% completion of M1 assembly formation", "setting": "[1]; all human tissue types tested", "result": "4 to 23", "unit": "min"},
      {"measurement": "adhesion of assemblies on human tissues", "setting": "[1]; cartilage, buccal, tongue, blood", "result": "stably adhered M1 assemblies were observed"},
      {"measurement": "tissue sites with no obvious PDA signal increase", "setting": "[2]", "result": 9, "unit": "tissue sites"},
      {"measurement": "tissue sites with significantly increased PDA levels (P<0.05)", "setting": "[2]; dopamine plus hydrogen peroxide", "result": 26, "unit": "tissue sites"}
    ]}
  ]
}
